Results on 30 compounds are retold here after patent publication US11939320B2, “Modulators of the integrated stress pathway” (Calico Life Sciences LLC, priority 2017, dated 2024).

The assay has as its system HEK293T cells carrying the ATF4 luciferase reporter. Nature of the assay: ATF4-Luc assay (in vitro model of VWMD). The format is cell-based. The settings on record: Homo sapiens, HEK-293T; HEK293T cells with ATF4 5'-UTR firefly luciferase reporter; 1 μg/mL tunicamycin; 7 hours; One Glo luminescence. As for the experimental part:
In order to test exemplary compounds of the invention in a cellular context, a stable VWMD cell line was first constructed. The ATF4 reporter was prepared by fusing the human full-length ATF4 5′-UTR (NCBI Accession No. BC022088.2) in front of the firefly luciferase (FLuc) coding sequence lacking the initiator methionine as described in Sidrauski et al (eLife 2013). The construct was used to produce recombinant retroviruses using standard methods and the resulting viral supernatant was used to transduce HEK293T cells, which were then subsequently selected with puromycin to generate a stable cell line.
HEK293T cells carrying the ATF4 luciferase reporter were plated on polylysine coated 384-well plates (Greiner Bio-one) at 30,000 cells per well. Cells were treated the next day with 1 μg/mL tunicamycin and 200 nM of a compound of Formula (I) for 7 hours. Luminescence was measured using One Glo (Promega) as specified by the manufacturer. Cells were maintained in DMEM with L-glutamine supplemented with 10% heat-inactivated FBS (Gibco) and Antibiotic-Antimycotic solution (Gibco).
Table 2 below summarizes the EC50 data obtained using the ATF4-Luc assay for exemplary compounds of the invention.
(In general: A reporter such as luciferase makes a cellular process visible.)

SMILES strings stand for the structures.

By EC50 is commonly meant the concentration giving half of the maximal effect. For the compound `O=C(N[C@@H]1CC[C@@H](C(=O)NCc2ccc(C(F)(F)F)cn2)OC1)C1CNc2cc(Cl)ccc2O1` (mixture of isomers) [Compound 165, 6-chloro-N-[(3R,6S)-6-({[5-(trifluoromethyl)pyridin-2-yl]methyl}carbamoyl)oxan-3-yl]-3,4-dihydro-2H-1,4-benzoxazine-2-carboxamide], the EC50 lay within 50 to 250 nM. Then `O=C(NCc1ccc(C(F)(F)F)cn1)[C@@H]1CC[C@@H](NC(=O)[C@@H]2CNc3cc(Cl)ccc3O2)CO1` (single isomer, unassigned) [Compound 161], with 250 to 500 nM. `O=C(COc1ccc(Cl)c(F)c1)N[C@H]1CC[C@@H](C(=O)NCc2ccc(C(F)(F)F)cn2)OC1` (single isomer, unassigned) [Compound 162]: the EC50 is more than 2000 nM. As to `O=C(COc1ccc(Cl)c(F)c1)N[C@@H]1CC[C@H](C(=O)NCc2ccc(C(F)(F)F)cn2)OC1` (single isomer, unassigned) [Compound 163], the EC50 was more than 2000 nM. On to `O=C(NCc1ccc(C(F)(F)F)cn1)[C@@H]1CC[C@@H](NC(=O)[C@H]2CNc3cc(Cl)ccc3O2)CO1` (single isomer, unassigned) [Compound 164], for which the EC50 was 50 to 250 nM. Then `O=C(COc1ccc(Cl)c(Cl)c1)N[C@H]1CC[C@H](C(=O)NCc2ccc(C(F)(F)F)nc2)CC1` [Compound 100, (1r,4r)-4-[2-(3,4-dichlorophenoxy)acetamido]-N-{[6-(trifluoromethyl)pyridin-3-yl]methyl}cyclohexane-1-carboxamide], with 10 to 50 nM; and `Cc1ccc(CNC(=O)[C@H]2CC[C@H](NC(=O)COc3ccc(Cl)c(Cl)c3)CC2)nc1` [Compound 101, (1r,4r)-4-[2-(3,4-dichlorophenoxy)acetamido]-N-[(5-methylpyridin-2-yl)methyl]cyclohexane-1-carboxamide], with more than 2000 nM; and `O=C(COc1ccc(Cl)c(Cl)c1)N[C@H]1CC[C@H](C(=O)Nc2ccc(OC(F)F)nc2)CC1` [Compound 102, (1r,4r)-4-[2-(3,4-dichlorophenoxy)acetamido]-N-[6-(difluoromethoxy)pyridin-3-yl]cyclohexane-1-carboxamide], with less than 10 nM. Turning to `O=C(COc1ccc(Cl)c(Cl)c1)N[C@H]1CC[C@H](C(=O)Nc2ccc(OCC(F)(F)F)nc2)CC1` [Compound 103, (1r,4r)-4-[2-(3,4-dichlorophenoxy)acetamido]-N-[6-(2,2,2-trifluoroethoxy)pyridin-3-yl]cyclohexane-1-carboxamide], the EC50 is more than 2000 nM.

With `O=C(COc1ccc(Cl)c(Cl)c1)N[C@H]1CC[C@H](C(=O)NCc2ccc(OC(F)F)cc2)CC1` [Compound 104, (1r,4r)-4-[2-(3,4-dichlorophenoxy)acetamido]-N-{[4-(difluoromethoxy)phenyl]methyl}cyclohexane-1-carboxamide], the EC50 lay within 50 to 250 nM. Consider `COc1ccc(CNC(=O)[C@H]2CC[C@H](NC(=O)COc3ccc(Cl)c(Cl)c3)CC2)cn1` [Compound 105, (1r,4r)-4-[2-(3,4-dichlorophenoxy)acetamido]-N-[(6-methoxypyridin-3-yl)methyl]cyclohexane-1-carboxamide], for which the EC50 is more than 2000 nM. Then `CN(Cc1cccnc1)C(=O)[C@H]1CC[C@H](NC(=O)COc2ccc(Cl)c(Cl)c2)CC1` [Compound 106, (1r,4r)-4-[2-(3,4-dichlorophenoxy)acetamido]-N-methyl-N-[(pyridin-3-yl)methyl]cyclohexane-1-carboxamide], with more than 2000 nM; and `O=C(COc1ccc(Cl)c(F)c1)N[C@H]1CC[C@H](C(=O)NCc2ccc(OC(F)F)cn2)CC1` [Compound 107, (1r,4r)-4-[2-(4-chloro-3-fluorophenoxy)acetamido]-N-{[5-(difluoromethoxy)pyridin-2-yl]methyl}cyclohexane-1-carboxamide], with 10 to 50 nM.

Regarding `Cc1cncc(CNC(=O)[C@H]2CC[C@H](NC(=O)COc3ccc(Cl)c(F)c3)CC2)c1` [Compound 108, (1r,4r)-4-[2-(4-chloro-3-fluorophenoxy)acetamido]-N-[(5-methylpyridin-3-yl)methyl]cyclohexane-1-carboxamide], the EC50 was more than 2000 nM.

Regarding `O=C(COc1ccc(Cl)c(F)c1)N[C@H]1CC[C@H](C(=O)Nc2ccc(OC(F)F)nc2)CC1` [Compound 109, (1r,4r)-4-[2-(4-chloro-3-fluorophenoxy)acetamido]-N-[6-(difluoromethoxy)pyridin-3-yl]cyclohexane-1-carboxamide], the EC50 is less than 10 nM. For `O=C(COc1ccc(Cl)c(F)c1)N[C@H]1CC[C@H](C(=O)Nc2ccc(OC(F)(F)F)cn2)CC1` [Compound 110, (1r,4r)-4-[2-(4-chloro-3-fluorophenoxy)acetamido]-N-[5-(trifluoromethoxy)pyridin-2-yl]cyclohexane-1-carboxamide], the EC50 fell in the range of 10 to 50 nM. In the case of `O=C(COc1ccc(Cl)c(F)c1)N[C@H]1CC[C@H](C(=O)Nc2ccc(Cl)c(F)c2)CC1` [Compound 111, (1r,4r)-4-[2-(4-chloro-3-fluorophenoxy)acetamido]-N-(4-chloro-3-fluorophenyl)cyclohexane-1-carboxamide], the EC50 lay in the range of 10 to 50 nM. Then `O=C(COc1ccc(Cl)c(F)c1)N[C@H]1CC[C@H](C(=O)NCc2ccc(Cl)c(F)c2)CC1` [Compound 112, (1r,4r)-4-[2-(4-chloro-3-fluorophenoxy)acetamido]-N-[(4-chloro-3-fluorophenyl)methyl]cyclohexane-1-carboxamide], with less than 10 nM. Consider `O=C(COc1ccc(Cl)c(F)c1)N[C@H]1CC[C@H](C(=O)N2CCC[C@@H]2c2cc(F)ccc2F)CC1` [Compound 113, 2-(4-chloro-3-fluorophenoxy)-N-{(1R,4r)-4-[(2R)-2-(2,5-difluorophenyl)pyrrolidine-1-carbonyl]cyclohexyl}acetamide], for which the EC50 was more than 2000 nM. Then `O=C(COc1ccc(Cl)c(F)c1)N[C@H]1CC[C@H](C(=O)N2CCC[C@H]2c2cc(F)ccc2F)CC1` [Compound 114, 2-(4-chloro-3-fluorophenoxy)-N-{(1S,4r)-4-[(2S)-2-(2,5-difluorophenyl)pyrrolidine-1-carbonyl]cyclohexyl}acetamide], with more than 2000 nM; and `O=C(COc1ccc(Cl)c(F)c1)N[C@H]1CC[C@H](C(=O)Nc2ccc(OCC(F)(F)F)nc2)CC1` [Compound 115, (1r,4r)-4-[2-(4-chloro-3-fluorophenoxy)acetamido]-N-[6-(2,2,2-trifluoroethoxy)pyridin-3-yl]cyclohexane-1-carboxamide], with 500 to 2000 nM; and `O=C(COc1ccc(Cl)c(F)c1)N[C@H]1CC[C@H](C(=O)NCc2ccc(OC(F)F)nc2)CC1` [Compound 116, (1r,4r)-4-[2-(4-chloro-3-fluorophenoxy)acetamido]-N-{[6-(difluoromethoxy)pyridin-3-yl]methyl}cyclohexane-1-carboxamide], with 50 to 250 nM. For the compound `O=C(COc1ccc(Cl)c(F)c1)N[C@H]1CC[C@H](C(=O)NCc2ncco2)CC1` [Compound 117, (1r,4r)-4-[2-(4-chloro-3-fluorophenoxy)acetamido]-N-[(1,3-oxazol-2-yl)methyl]cyclohexane-1-carboxamide], the EC50 was more than 2000 nM.

As for `O=C(COc1ccc(Cl)c(F)c1)N[C@H]1CC[C@H](C(=O)NCc2cnco2)CC1` [Compound 118, (1r,4r)-4-[2-(4-chloro-3-fluorophenoxy)acetamido]-N-[(1,3-oxazol-5-yl)methyl]cyclohexane-1-carboxamide], the EC50 was more than 2000 nM. Regarding `O=C(COc1ccc(Cl)c(F)c1)N[C@H]1CC[C@H](C(=O)NCc2ccc(C(F)(F)F)cn2)CC1` [Compound 119, (1r,4r)-4-[2-(4-chloro-3-fluorophenoxy)acetamido]-N-{[5-(trifluoromethyl)pyridin-2-yl]methyl}cyclohexane-1-carboxamide], the concentration for a half-maximal effect (EC50) is less than 10 nM. For `O=C(COc1ccc(Cl)c(Cl)c1)N[C@H]1CC[C@H](C(=O)NCc2ccc(OC(F)F)cn2)CC1` [Compound 120, (1r,4r)-4-[2-(3,4-dichlorophenoxy)acetamido]-N-{[5-(difluoromethoxy)pyridin-2-yl]methyl}cyclohexane-1-carboxamide], the EC50 lay in the range of 10 to 50 nM. Turning to `O=C(COc1ccc(Cl)c(F)c1)N[C@H]1C[C@H](C(=O)NCc2ccc(Cl)cn2)C1` [Compound 121, (1r,3r)-3-[2-(4-chloro-3-fluorophenoxy)acetamido]-N-[(5-chloropyridin-2-yl)methyl]cyclobutane-1-carboxamide], the EC50 lay within 250 to 500 nM.

On to `O=C(COc1ccc(Cl)c(F)c1)N[C@H]1C[C@H](C(=O)NCc2ccc(C(F)(F)F)cn2)C1` [Compound 122, (1r,3r)-3-[2-(4-chloro-3-fluorophenoxy)acetamido]-N-{[5-(trifluoromethyl)pyridin-2-yl]methyl}cyclobutane-1-carboxamide], for which the EC50 fell in the range of 500 to 2000 nM. For the compound `O=C(COc1ccc(Cl)c(F)c1)N[C@H]1C[C@H](C(=O)N2CC(c3ccc(Cl)cc3)C2)C1` [Compound 123, 2-(4-chloro-3-fluorophenoxy)-N-{(1r,3r)-3-[3-(4-chlorophenyl)azetidine-1-carbonyl]cyclobutyl}acetamide], the EC50 fell in the range of 250 to 500 nM. Take `O=C(COc1ccc(Cl)c(F)c1)N[C@H]1CC[C@H](C(=O)N2CC3(CN(c4ccc(Cl)c(F)c4)C3)C2)CC1` [Compound 124, 2-(4-chloro-3-fluorophenoxy)-N-{(1r,4r)-4-[6-(4-chloro-3-fluorophenyl)-2,6-diazaspiro[3.3]heptane-2-carbonyl]cyclohexyl}acetamide]: the concentration for a half-maximal effect (EC50) is more than 2000 nM.
